From patent US6288082A, “Substituted 3-cyanoquinolines” (priority 1999, dated 2001)
≈ marks a conversion by molar mass, not a printed value. Where “and” joins values, the source holds several entries; their conditions need not be identical. Identical values can stand only once.

Experiments:
[1] = biological target: T1, Epidermal Growth Factor Receptor Kinase (EGF-R) (Homo sapiens, UniProt P00533); test: Inhibition of Epidermal Growth Factor Receptor Kinase (EGF-R) Using Recombinant Enzyme; format: biochemical; conditions: for IC50: recombinant enzyme, RR-SRC peptide substrate
T1 construct: EGFR cDNA encoding amino acids 645-1186 preceded by Met-Ala-(His)6; Met-Ala-(His)6 (N); made in house; host or cells: Sf9 insect cells, recombinant baculovirus vHcEGFR52
T1 sequence (P00533 669-1210): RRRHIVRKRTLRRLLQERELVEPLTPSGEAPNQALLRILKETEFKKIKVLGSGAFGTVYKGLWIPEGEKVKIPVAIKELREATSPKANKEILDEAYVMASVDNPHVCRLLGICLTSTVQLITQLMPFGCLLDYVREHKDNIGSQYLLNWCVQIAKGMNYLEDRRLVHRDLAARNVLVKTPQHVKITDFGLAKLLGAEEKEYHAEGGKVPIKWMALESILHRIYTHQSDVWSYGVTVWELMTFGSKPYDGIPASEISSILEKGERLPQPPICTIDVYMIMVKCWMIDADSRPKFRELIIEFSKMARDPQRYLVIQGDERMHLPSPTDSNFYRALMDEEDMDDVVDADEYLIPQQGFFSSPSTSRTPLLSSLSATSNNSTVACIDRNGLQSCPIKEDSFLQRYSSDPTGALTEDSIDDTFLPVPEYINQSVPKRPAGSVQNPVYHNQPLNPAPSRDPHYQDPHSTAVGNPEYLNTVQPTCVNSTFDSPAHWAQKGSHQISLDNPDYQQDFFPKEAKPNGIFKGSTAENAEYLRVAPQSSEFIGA
Description: Inhibition of Epidermal Growth Factor Receptor Kinase (EGF-R) Using Recombinant Enzyme
Representative test compounds were evaluated for their ability to inhibit the phosphorylation of the tyrosine residue of a peptide substrate catalyzed by the enzyme epidermal growth factor receptor kinase. The peptide substrate (RR-SRC) has the sequence arg-arg-leu-ile-glu-asp-ala-glu-tyr-ala-ala-arg-gly. The enzyme used in this test procedure is the His-tagged cytoplasmic domain of EGFR. A recombinant baculovirus (vHcEGFR52) was constructed containing the EGFR cDNA encoding amino acids 645-1186 preceded by Met-Ala-(His)6. Sf9 cells in 100 mm plates were infected at an moi of 10 pfu/cell and cells were harvested 48 h post infection. A cytoplasmic extract was prepared using 1% Triton X-100 and applied to Ni-NTA column. After washing the column with 20 mM imidazole, HcEGFR was eluted with 250 mM imidazole (in 50 mM Na2 HPO4, pH 8.0, 300 mM NaCl). Fractions collected were dialyzed against 10 mM HEPES, pH 7.0, 50 mM NaCl, 10% glycerol, 1 ug/mL antipain and leupeptin and 0.1 mM Pefabloc SC. The protein was frozen in dry ice/methanol and stored -70° C.
Test compounds were made into 10 mg/mL stock solutions in 100% dimethylsulfoxide (DMSO). Prior to experiment, stock solutions were diluted to 500 uM with 100% DMSO and then serially diluted to the desired concentration with HEPES buffer (30 mM HEPES pH 7.4).
For the enzyme reaction, 10 uL of each inhibitor (at various concentrations) were added to each well of a 96-well plate. To this was added 3 uL of enzyme (1:10 dilution in 10 mM HEPES, pH 7.4 for final conc. of 1:120). This was allowed to sit for 10 min on ice and was followed by the addition of 5 ul peptide (80 uM final conc.), 10 ul of 4×Buffer (Table A), 0.25 uL ^33 P-ATP and 12 uL H2 O. The reaction was allowed to run for 90 min at room temperature and was followed by spotting the entire volume on to precut P81 filter papers. The filter discs were washed 2× with 0.5% phosphoric acid and radioactivity was measured using a liquid scintillation counter. […]
The inhibition data for representative compounds of the invention are shown below in TABLE 1. […] The % inhibition of the test compound was determined for at least three different concentrations and the IC50 value was evaluated from the dose response curve. The % inhibition was evaluated with the following formula: […]
where CPM(drug) is in units of counts per minute and is a number expressing the amount of radiolabled ATP (γ-^33 P) incorporated onto the RR-SRC peptide substrate by the enzyme after 90 minutes at room temperature in the presence of test compound as measured by liquid scintillation counting. CPM(control) is in units of counts per minute and was a number expressing the amount of radiolabled ATP (γ-^33 P) incorporated into the RR-SRC peptide substrate by the enzyme after 90 minutes at room temperature in the absence of test compound as measured by liquid scintillation counting. The CPM values were corrected for the background counts produced by ATP in the absence of the enzymatic reaction.

[2] = biological target: T2, Kinase insert Domain containing Receptor (KDR) (Homo sapiens, UniProt P35968); test: Inhibition of Kinase insert Domain containing Receptor (KDR; the catalytic domain of the VEGF receptor); format: biochemical; conditions: substrate E:Y 4:1, pH 7.2
T2 construct: KDR; the Catalytic Domain of the VEGF Receptor
T2 sequence (P35968 834-1162 limits assumed): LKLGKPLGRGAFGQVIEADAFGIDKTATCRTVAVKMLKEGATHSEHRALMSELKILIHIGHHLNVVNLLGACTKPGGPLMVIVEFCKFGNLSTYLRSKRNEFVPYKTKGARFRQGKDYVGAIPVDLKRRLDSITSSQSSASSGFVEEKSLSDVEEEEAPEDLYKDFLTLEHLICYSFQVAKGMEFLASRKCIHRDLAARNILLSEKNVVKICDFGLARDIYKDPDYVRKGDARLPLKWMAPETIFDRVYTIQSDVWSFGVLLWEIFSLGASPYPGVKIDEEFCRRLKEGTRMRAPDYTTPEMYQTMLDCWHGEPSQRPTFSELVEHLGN
Description: Inhibition of Kinase Insert Domain Containing Receptor (KDR; the Catalytic Domain of the VEGF Receptor)
In this standard pharmacological test procedure, KDR protein is mixed, in the presence or absence of a inhibitor compound, with a substrate peptide to be phosphorylated (a copolymer of glutamic acid and tyrosine, E:Y: 4:1) and other cofactors such as Mg^++ and sodium vanadate (a protein tyrosine phosphatase inhibitor) in an appropriate buffer to maintain pH (7.2). ATP and a radioactive tracer (either P^32 -or P^33 -labeled ATP) is then add to initiate phosphorylation. After incubation, the radioactive phosphate associated with the acid-insoluble fraction of the assay mixture is then quantified as reflection of substrate phosphorylation.

[3] = biological target: Epithelial Cell Kinase (ECK) (Homo sapiens, UniProt P29317); test: Inhibition of Epithelial Cell Kinase (ECK); format: biochemical; conditions: biotinylated peptide substrate, pH 7.2
Sequence of Epithelial Cell Kinase (ECK) (P29317 24-976): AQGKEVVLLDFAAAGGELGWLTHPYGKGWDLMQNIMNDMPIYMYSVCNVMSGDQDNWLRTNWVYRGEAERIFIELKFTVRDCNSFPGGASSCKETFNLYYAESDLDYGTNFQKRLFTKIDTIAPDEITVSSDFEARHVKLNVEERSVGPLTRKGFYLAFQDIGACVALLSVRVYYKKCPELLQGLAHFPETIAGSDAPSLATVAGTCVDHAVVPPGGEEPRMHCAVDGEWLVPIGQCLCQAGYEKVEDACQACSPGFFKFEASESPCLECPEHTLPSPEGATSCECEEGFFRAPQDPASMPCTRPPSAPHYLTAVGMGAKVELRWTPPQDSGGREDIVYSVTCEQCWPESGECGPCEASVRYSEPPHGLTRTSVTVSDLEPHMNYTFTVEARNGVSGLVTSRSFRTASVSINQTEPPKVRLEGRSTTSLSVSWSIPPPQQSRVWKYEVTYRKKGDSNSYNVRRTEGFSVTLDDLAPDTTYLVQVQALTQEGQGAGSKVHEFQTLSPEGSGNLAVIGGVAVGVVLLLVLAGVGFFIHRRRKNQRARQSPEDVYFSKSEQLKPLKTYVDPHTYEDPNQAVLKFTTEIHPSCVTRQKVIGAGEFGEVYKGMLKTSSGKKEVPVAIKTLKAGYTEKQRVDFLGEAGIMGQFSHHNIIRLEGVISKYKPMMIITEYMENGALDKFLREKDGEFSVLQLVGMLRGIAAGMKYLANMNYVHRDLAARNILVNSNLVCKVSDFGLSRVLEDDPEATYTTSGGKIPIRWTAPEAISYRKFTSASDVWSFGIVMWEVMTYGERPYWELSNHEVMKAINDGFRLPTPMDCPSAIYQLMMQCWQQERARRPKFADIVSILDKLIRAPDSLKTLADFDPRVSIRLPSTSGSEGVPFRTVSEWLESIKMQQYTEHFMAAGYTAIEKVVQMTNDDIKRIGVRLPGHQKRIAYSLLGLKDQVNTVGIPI
Description: In this standard pharmacological test procedure, a biotinylated peptide substrate is first immobilized on neutravidin-coated microtiter plates. The test drug, the Epithelial Cell Kinase (ECK), Mg^++, sodium vanadate (a protein tyrosine phosphatase inhibitor), and an appropriate buffer to maintain pH (7.2) are then added to the immobilized substrate-containing microtiter wells. ATP is then added to initiate phosphorylation. After incubation, the assay plates are washed with a suitable buffer leaving behind phosphorylated peptide which is exposed to horse radish peroxidase (HRP)-conjugated anti-phosphotyrosine monoclonal antibody. The antibody-treated plates are washed again and the HRP activity in individual wells is quantified as a reflection of degree of substrate phosphorylation.

[4] = system: human colon carcinoma SW620; conditions: 3 mg/kg/dose IP days 1-20, Day 7
Description: In Vivo Inhibition of the Growth of Human Colon Carcinoma SW620
Human colon carcinoma SW620 cells (American Type Culture Collection, Rockville, Md. #CCL-227) were grown in vitro as described above. BALB/c nu/nu female mice (Charles River, Wilmington, Mass.) were used in this in vivo standard pharmacological test procedure. A unit of 7×10^6 cells were injected SC into mice. When tumors attained a mass of between 80 and 120 mg, the mice were randomized into treatment groups (day zero). Mice were treated IP once a day on days 1 through 20 post staging with doses of either 30, 10, 3 or 1 mg/kg/dose of the compound to be evaluated in 0.2% Klucel. Control animals received vehicle only. Tumor mass was determined every 7 days [(length×width^2)/2] for 28 days post staging. Relative tumor growth (Mean tumor mass on days 7, 14, 21, and 28 divided by the mean tumor mass on day zero) is determined for each treatment group. Statistical analysis (Student-t-test) of log relative tumor growth compares treated verses control group. A p-value (p≤0.05) indicates a statistically significant reduction in relative tumor growth of treated group compared to the vehicle control.

[5] = system: MDA-MB-435; test: Inhibition of cancer cell growth as measured by cell number, MDA-MB-435; format: cell-based; conditions: Homo sapiens, MDA-MB-435, 48 h, MDA-MB-435, 48 hours exposure
Description: (§1) Inhibition of Cancer Cell Growth as Measured by Cell Number […] […] After 48 hours exposure to test compounds, cells were fixed with trichloroacetic acid, and stained with Sulforhodamine B. After washing with trichloroacetic acid, bound dye was solubilized in 10 mM Tris base and optical density was determined using plate reader. Under conditions of the assay the optical density is proportional to the number of cells in the well. […] The test procedure is described in details by Philip Skehan et. al, J.Natl. Canc. Inst., 82, 1107-1112 (1990). […] Information about some of the cell lines used in these test procedures is available from the American Type Tissue Collection: Cell Lines and Hybridomas, 1994 Reference Guide, 8th Edition.

[6] = system: A431; test: Inhibition of cancer cell growth as measured by cell number, A431; format: cell-based; conditions: Homo sapiens, A-431, 48 h, A431, 48 hours exposure
Description: as §1

[7] = system: SK-BR3; test: Inhibition of cancer cell growth as measured by cell number, SK-BR3; format: cell-based; conditions: Homo sapiens, SK-BR-3, 48 h, SK-BR3, 48 hours exposure
Description: as §1

[8] = system: 3T3/c-erbb2; test: Inhibition of cancer cell growth as measured by cell number, 3T3/c-erbb2; format: cell-based; conditions: 3T3/c-erbb2, 48 hours exposure
Description: as §1

[9] = system: SW620; test: Inhibition of cancer cell growth as measured by cell number, SW620; format: cell-based; conditions: Homo sapiens, SW-620, 48 h, SW620, 48 hours exposure
Description: as §1

[10] = system: 3T3; test: Inhibition of cancer cell growth as measured by cell number, 3T3; format: cell-based; conditions: Mus musculus, NIH3T3; 3T3, 48 hours exposure
Description: as §1

[11] = biological target: Mitogen Activated Protein Kinase (Mek-Erk); test: Mitogen Activated Protein Kinase (MAPK) assay, coupled Mek-Erk; format: biochemical, human; conditions: MBP or Myc peptide substrate, pH 7.4
Description: Mitogen Activated Protein Kinase (MAPK) Assay
To evaluate inhibitors of the MAP (mitogen activated protein) kinase a two component coupled standard pharmacological test procedure, which measures phosphorylation of a serine/threonine residue in an appropriate sequence in the substrate in the presence and absence of a putative inhibitor, was used. Recombinant human MEK 1 (MAPKK) was first used to activate recombinant human ERK2 (MAPK) and the activated MAPK (ERK) was incubated with substrate (MBP peptide or MYC peptide) in the presence of ATP, Mg^+2 and radiolabeled ^33 P ATP. The phosphorylated peptide was captured on a P 81 phosphocellulose filter (paper filter or embedded in microtiter plate) washed and counted by scintillation methods.
The peptide substrates used in the assay are MBP, peptide substrate ([…]), or synthetic Myc substrate, ([…]·5 TFA. The recombinant enzymes used were prepared as GST fusion proteins of human ERK 2 and human MEK 1. Inhibitor samples were prepared as 10×stocks in 10% DMSO and an appropriate aliquot was used to deliver either 10 ug/ml for a single point screening dose or 100, 10, 1, and 0.1 uM final concentration for a dose response curve. Final DMSO concentrations were less than or equal to 1%.
The reaction was run as follows in 50 mM Tris kinase buffer, pH 7.4 in a reaction volume of 50 ul. The appropriate volume of kinase buffer and inhibitor sample was added to the tube. Appropriate dilution of enzyme was delivered to give 2-5 ug recombinant MAPK (Erk ) per tube. The inhibitor was incubated with MAPK (Erk) for 30 min at 0 deg. C. Recombinant Mek (MAPKK) (0.5-2.5 ug) or fully activated Mek (0.05-0.1 units) was added to activate the Erk and incubated for 30 min at 30° C. Then substrate and gamma ^33 P ATP was were added to give a final concentration of 0.5-1 mM MBPP or 250-500 uM Myc; 0.2-0.5 uCi gamma P 33 ATP/tube; 50 μM ATP final concentration. Samples were incubated at 30° C. for 30 minutes and the reaction was stopped by adding 25 μl of ice cold 10% TCA. After samples were chilled on ice for 30 min, 20 μl of sample was transferred onto P 81 phosphocellulose filter paper or appropriate MTP with embedded P 81 filter. Filter papers or MTP were washed 2 times with a large volume of 1% acetic acid, then 2 times with water. The filters or MTP were briefly air dried before addition of scintillant and samples were counted in the appropriate scintillation counter set up for reading ^33 P isotope. Samples included a positive control (activated enzyme plus substrate); a no enzyme control; a no substrate control; samples with different concentrations of putative inhibitor; and samples with reference inhibitors (other active compounds or non-specific inhibitors such as staurosporine or K252 B).
The raw data was captured as cpm. Sample replicates were averaged and corrected for background count. Mean cpm data was tabulated by group and % inhibition by a test compound was calculated as (corrected cpm control-corrected. cpm sample/control)×100=% inhibition. […] The results obtained for representative compounds of this invention are listed in TABLE 2 where there may be separate entries for the same compound; this is an indication that the compound was evaluated more than one time.

| SMILES | IC50 [1] [µM] | IC50 [2] [µM] | IC50 [3] | IC50 [8] [µg/mL] | IC50 [11] | also measured |
| --- | --- | --- | --- | --- | --- | --- |
| CCOc1cc2ncc(C#N)c(Nc3ccc4c(c3)NCC4)c2cc1OCC [Example 96, 4-(2,3-Dihydro-1H-indol-6-ylamino)-6,7-diethoxy-quinoline-3-carbonitrile] | > 10 | 8.02 | > 53.5 µM | – | – | inhibition at 0.5 µM ([1]; read-out: % Inh @ 0.5 μM): 6% |
| CCOc1cc2ncc(C#N)c(Nc3ccc4c(c3)OCO4)c2cc1OCC [Example 98, 4-(Benzo[1,3]dioxol-5-ylamino)-6,7-diethoxy-quinoline-3-carbonitrile] | – | 2.65 | – | – | – | – |
| CCOc1cc2ncc(C#N)c(Nc3ccc4cn[nH]c4c3)c2cc1OCC [Example 99, 6,7-Diethoxy-4-(1H-indazol-6-ylamino)-quinoline-3-carbonitrile] | – | – | – | – | – | Relative Tumor Growth Day 7 [4]: 3.80 |
| CCOc1cc2ncc(C#N)c(Nc3ccc4cc[nH]c4c3)c2cc1OCC [Example 101, 6,7-Diethoxy-4-(1H-indol-6-ylamino)-quinoline-3-carbonitrile] | > 1 | – | – | – | – | – |
| CCOc1cc2ncc(C#N)c(Nc3ccc4c(c3)OCCO4)c2cc1OCC [Example 105, 4-(2,3-Dihydro-benzo[1,4]dioxin-6-ylamino)-6,7-diethoxy-quinoline-3-carbonitrile] | – | 76.6 | > 51.1 µM | 0.375 (≈ 0.958 µM) | – | IC50 [5]: 0.235 µg/mL (≈ 0.6 µM); IC50 [6]: 0.27 µg/mL (≈ 0.69 µM); IC50 [7]: 0.281 µg/mL (≈ 0.718 µM); IC50 [9]: 0.411 µg/mL (≈ 1.05 µM); IC50 [10]: 0.853 µg/mL (≈ 2.18 µM) |
| CCOc1cc2ncc(C#N)c(Nc3ccc4c(c3)CCC4)c2cc1OCC [Example 108, 6,7-Diethoxy-4-(indan-5-ylamino)-quinoline-3-carbonitrile] | – | – | – | 0.198 (≈ 0.53 µM) | – | – |
| CCOc1cc2ncc(C#N)c(Nc3ccc4c(c3)CCC4=O)c2cc1OCC [Example 110, 6,7-Diethoxy-4-(1-oxo-indan-5-ylamino)-quinoline-3-carbonitrile] | – | > 77.4 | 0.155 µM and 0.036 µM | 0.0311 (≈ 0.0803 µM) | > 100 µM and 50 µM | IC50 [5]: 0.028 µg/mL (≈ 0.0723 µM); IC50 [6]: 0.0244 µg/mL (≈ 0.063 µM); IC50 [7]: 0.0281 µg/mL (≈ 0.0725 µM); IC50 [9]: 0.0181 µg/mL (≈ 0.0467 µM); IC50 [10]: 0.0923 µg/mL (≈ 0.238 µM) |
| CCOc1cc2ncc(C#N)c(Nc3ccc4c(c3)C(=O)OC4)c2cc1OCC [Example 111, 6,7-Diethoxy-4-(3-oxo-1,3-dihydro-isobenzofuran-5-ylamino)-quinoline-3-carbonitrile] | > 1 | – | – | – | > 100 µM | – |
| CCOc1cc2ncc(C#N)c(Nc3ccc4cn[nH]c4c3)c2cc1OC [Example 115, 7-Ethoxy-4-(indazol-6-ylamino)-6-methoxy-quinoline-3-carbonitrile] | > 0.5 | – | – | – | 25 µM | – |
| CCOc1cc2ncc(C#N)c(Nc3ccc4c(c3)C(=O)NCC(=O)N4C)c2cc1OCC [Example 127, 6,7-Diethoxy-4-(1-methyl-2,5-dioxo-2,3,4,5-tetrahydro-1H-benzo[e][1,4]diazepin-7-ylamino)-quinoline-3-carbonitrile] | > 1 | – | – | – | > 100 µM | – |
